The results in this text go back to patent US20250228895A1, “COMPOUNDS TO INHIBIT YTHDF2, T HELPER CELLS LACKING EXPRESSION OF YTHDF2, AND METHODS TO TREAT CANCER” (City of Hope, priority 2024, published 2025).

The test system of this test is YTHDF2. Put plainly: Immunoblotting of IFN-γ induced YTHDF2 degradation in B16-OVA tumor cells with pathway inhibitors. Format: cell-based, mouse. The settings on record: 100 ng/mL IFN-γ 24 hours; inhibitor 6 h prior to collection. The procedure:
FIGS. 28A-28L show CD8^+ T cells derived IFN-γ induces autophagic degradation of YTHDF2. (A) Immunoblotting showing the expression of YTHDF2 in B16-OVA tumor cells after coculture with OT1 CD8^+ T cells for 24 hours. (B and C) Immunoblotting showing the expression of YTHDF2 in B16-OVA and MC38 tumor cells after treatment with 100 ng/mL IFN-γ for 24 hours. […] (F and G) WT B16-OVA tumor cells treated with CHX for the indicated time periods. YTHDF2 levels were analyzed by immunoblotting. Representative blots (F) and quantification of immunoblotting signals of YTHDF2 to β-actin levels (G) are shown (n=3 samples per group). […] MG132 or Lys05 was then added to the IFN-γ treated tumor cells for 6 h prior to collection. DMSO served as vehicle control. (I) Network schematic showing potential protein-protein interactions. Each node represents a protein, the size of each node represents the degree of connectivity, and each edge represents two proteins that have an interaction. (J) Immunofluorescence analysis of p62 (green) and YTHDF2 (red) in 293T cells, B16-OVA cells, and Hela cells. DAPI is used as a nuclear counterstain (blue). […]
Immune cells, such as CD8^+ T cells, usually edit tumor cells and trigger them to evade immune surveillance (Kim et al., 2007). […] To determine the mechanism by which IFN-γ downregulates YTHDF2, we first assessed whether IFN-γ affects Ythdf2 expression at mRNA levels. […]

`CN(CCNc1ccnc2cc(Cl)ccc12)CCNc1ccnc2cc(Cl)ccc12.Cl.Cl.Cl` [Lys05]: the “reversal of YTHDF2 degradation induced by IFN-γ” value is “could reverse the YTHDF2 degradation”.
